Our source for the Activity values is ChEMBL document CHEMBL1157278, “A new sesquiterpene as an antifouling substance from a palauan marine sponge, dysidea herbacea” (1999).

Active and inactive are the calls of the source. No cut-off for these calls is given here.

Assay [1] relates to Mytilus edulis. Kind of assay: Antifouling activity in Mytilus edulis galloprovincialis assessed as foot contraction at 100 ppm. It is filed as functional.
Assay [2] deals with Mytilus edulis. As to the kind of experiment: Antifouling activity in Mytilus edulis galloprovincialis assessed as foot contraction at <10 ppm. Format: functional, organism-based.

Take `C=C1[C@@H](C)C[C@H]2C[C@]1(C)CCC1=CC(=O)O[C@@]12O`: the Activity in the assay on Mytilus edulis [1] stood at 100%. Also, the outcome with Mytilus edulis [2] was inactive.
